Source: patent EP1574201B1, “Composition comprising benzyloxyethanol as preservative” (KAO CORPORATION, priority 2004, dated 2005)

Experiments:
[1] = tested on: Alcaligenes faecalis IFO 13111; experiment: MIC by agar plate method; assay type: cell-based; conditions: SCD agar medium
Method: (§1) The minimum inhibitory concentration (MIC) of benzyloxyethanol against bacteria and fungi was determined by means of the agar plate method. There were employed the following microbial strains: Staphylococcus aureus IFO 13276, Escherichia coli IFO 3972, Pseudomonas aeruginosa IFO 13275, and Alcaligenes faecalis IFO 13111, and the following fungal strains: Penicillium citrinum IFO 6352 , Cladosporium cladosporoides IFO 6348 and Aspergillus niger IFO 6341. The media used in the test […] agar medium (product of Wako Pure Chemical Industries, Ltd.) for the bacteria, and GP agar medium (product of Wako Pure Chemical Industries, Ltd.) for the fungi, to which various concentration of benzyloxyethanol was added.

[2] = tested on: Aspergillus niger IFO 6341; experiment: MIC by agar plate method; assay type: cell-based; conditions: GP agar medium
Method: as §1

[3] = tested on: Cladosporium cladosporoides IFO 6348; experiment: MIC by agar plate method; assay type: cell-based; conditions: GP agar medium
Method: as §1

[4] = tested on: Escherichia coli IFO 3972; experiment: MIC by agar plate method; assay type: cell-based; conditions: SCD agar medium
Method: as §1

[5] = tested on: Penicillium citrinum IFO 6352; experiment: MIC by agar plate method; assay type: cell-based; conditions: GP agar medium
Method: as §1

[6] = tested on: Pseudomonas aeruginosa IFO 13275; experiment: MIC by agar plate method; assay type: cell-based; conditions: SCD agar medium
Method: as §1

[7] = tested on: Staphylococcus aureus IFO 13276; experiment: MIC by agar plate method; assay type: cell-based; conditions: SCD agar medium
Method: as §1

[8] = tested on: Staphylococcus aureus IFO 13276, Escherichia coli IFO 3972, and Pseudomonas aeruginosa IFO 13275; experiment: Preservative efficacy test (reduction in count of viable bacteria); assay type: cell-based; conditions: BOE and methyl paraben in combination versus each alone
Method: Preservative efficacy test was performed at 30°C by use of the bacteria written below and a sample (50 g) having a composition shown in the below-described Table 2, and the preservative efficacy was evaluated on the reduction in count of viable bacteria. The following test microorganisms are challenged: Staphylococcus aureus IFO 13276, Escherichia coli IFO 3972, and Pseudomonas aeruginosa IFO 13275.

[9] = guinea pig, in vivo
Method: Guinea pig maximization test was performed. Specifically, groups of guinea pigs, each group consisting of 10 guinea pigs, were employed, and each animal was given interedermal injection of.0.3(W/V)% benzyloxyethanol and 30(W/V)% benzyloxyethanol was applied occlusive patch. Subsequently, challenge was performed at a concentration of benzyloxyethanol at which no irritation occurs.

Structure (SMILES): OCCOCc1ccccc1 [benzyloxyethanol]
- MIC (%) [1]: 0.8%
- MIC (%) [2]: 0.8%
- MIC (%) [3]: 0.2%
- MIC (%) [4]: 0.8%
- MIC (%) [5]: 0.8%
- MIC (%) [6]: 1.0%
- MIC (%) [7]: 1.4%
- available amounts for the required reduction were reduced by [8]: 40%
- positive rate [9]: 0%

Structure (SMILES): COC(=O)c1ccc(O)cc1 [methyl paraben, reference compound]
- available amounts for the required reduction were reduced by [8]: 75%
